Calls of active or inactive are those of the source.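 The calls were made as follows: active = parasite count per well reduced by over 3 SD from the mean, with host cell number above 80% of untreated; inactive = the rest.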

This test has as its system L. donovani amastigotes in THP-1 macrophages, DAPI imaging, 72 h. Description: L. donovani intracellular amastigote growth inhibitors, imaging, THP-1 host macrophages, single concentration (AID 977614).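 Also: signal is the parasite per host cell ratio from DAPI stained kinetoplasts and nuclei.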
As usually defined, the AC50 is the concentration at which the activity in the assay is half-maximal. Regarding `C/C=C/c1ccc([C@H]2[C@@H](CNC(=O)CC3CC3)N(C(=O)CC)[C@H]2CO)cc1`, the AC50 was > 10 µM (inactive).

Turning to `C[C@@H]1CN([C@@H](C)CO)C(=O)CCCn2nncc2CO[C@H]1CN(C)C(=O)CCC(F)(F)F`, the AC50 is > 10 µM (inactive). For `C/C=C/c1ccc([C@@H]2[C@H](CO)N[C@H]2CNS(=O)(=O)c2ccccc2)cc1`, the AC50 is > 10 µM (inactive). On to `CC(C)NC(=O)N1[C@H](CO)[C@H]2c3ccccc3N(C)C[C@H]21`, for which the AC50 was > 10 µM (inactive).

As for `COc1ccccc1C(=O)N1C[C@H]2[C@@H](c3ccccc31)[C@@H](CO)N2CC1CCCC1`, the AC50 was > 10 µM (inactive). Consider `O=C(Nc1ccccc1Cl)N1C[C@H]2[C@@H](c3ccccc31)[C@H](CO)N2C(=O)c1cccnc1`, for which the AC50 was > 10 µM (inactive). For the compound `C[C@@H]1CN([C@H](C)CO)C(=O)CCCn2cc(nn2)CO[C@H]1CN(C)C(=O)NC1CCCCC1`, the AC50 was > 10 µM (inactive). In the case of `C[C@@H]1CN([C@H](C)CO)C(=O)CCCn2nncc2CO[C@@H]1CN(C)Cc1cccc(C(F)(F)F)c1`, the AC50 was > 10 µM (inactive). The result for `CCN(C[C@@H]1N[C@@H](CO)[C@H]1c1ccccc1)C(=O)c1ccncc1` reads > 10 µM (inactive); that for `CCCC#Cc1ccc([C@H]2[C@@H](CO)N(C(C)=O)[C@H]2CN(C)C(=O)C2CC2)cc1`, > 10 µM (inactive); that for `C[C@H]1CN([C@@H](C)CO)C(=O)CCCn2nncc2CO[C@@H]1CN(C)Cc1ccc2c(c1)OCCN2C`, > 10 µM (inactive). In the case of `COc1ccc(C(=O)N2C[C@H]3[C@@H](c4ccccc42)[C@@H](CO)N3C(=O)NC(C)C)cc1`, the AC50 was > 10 µM (inactive). For `C[C@H]1CN([C@@H](C)CO)C(=O)CCCn2nncc2CO[C@H]1CN(C)Cc1ccc2cccnc2c1`, the AC50 was > 10 µM (inactive).

On to `C[C@H](CO)N1C[C@H](C)[C@H](CN(C)C(=O)Nc2cccc3ccccc23)OCc2cn(nn2)CCCC1=O`, for which the AC50 was > 10 µM (inactive).

`O=C(CC(F)(F)F)N1C[C@@H]2[C@H](c3ccccc31)[C@H](CO)N2CC1CCOCC1`: the AC50 was > 10 µM (inactive). For `COc1ccccc1CN1[C@H](CO)[C@@H]2c3ccccc3N(C(=O)C3CCOCC3)C[C@@H]21`, the AC50 was > 10 µM (inactive). As for `O=C(NC[C@H]1[C@H](c2ccccc2)[C@H](CO)N1C(=O)Cc1ccncc1)C1CCC1`, the AC50 is > 10 µM (inactive). For `O=S(=O)(NC[C@H]1[C@@H](c2ccccc2)[C@@H](CO)N1CC1CC1)c1ccccc1`, the AC50 was > 10 µM (inactive). Regarding `CC(=O)N1[C@H](CO)[C@H]2c3ccccc3N(C(=O)c3ccc(F)cc3)C[C@H]21`, the AC50 is > 10 µM (inactive).

Consider `C[C@@H]1CN([C@H](C)CO)C(=O)CCCn2nncc2CO[C@H]1CN(C)Cc1cccc2c1OCCCO2`, for which the AC50 was > 10 µM (inactive).

Turning to `Cc1cccc(S(=O)(=O)N2C[C@@H]3[C@H](c4ccccc42)[C@@H](CO)N3CC2CCCC2)c1`, the AC50 is > 10 µM (inactive). The same measure for `CCc1csc(N2[C@H](CO)[C@H](c3ccccc3)[C@@H]2CNC)n1`: > 10 µM (inactive); for `CCS(=O)(=O)N1[C@H](CO)[C@H](c2ccccc2)[C@H]1CN(C(C)=O)C1CCCC1`: > 10 µM (inactive); for `CC(=O)N1[C@@H](CO)[C@H](c2ccccc2)[C@@H]1CN(C)S(=O)(=O)c1ccccc1`: > 10 µM (inactive). Consider `COc1ccccc1-c1ccc([C@H]2[C@@H](CO)N(C(C)=O)[C@@H]2CN(C)C(C)=O)cc1`, for which the AC50 was > 10 µM (inactive).

For `C[C@@H]1CN([C@H](C)CO)C(=O)CCCn2cc(nn2)CO[C@@H]1CN(C)C(=O)Oc1ccc2ccccc2c1`, the AC50 was > 10 µM (inactive). Regarding `O=C(CC1CC1)NC[C@H]1N[C@H](CO)[C@@H]1c1ccc(-c2ccc(F)cc2)cc1`, the AC50 was > 10 µM (inactive). `COCCN(C[C@H]1[C@H](c2ccccc2)[C@H](CO)N1C(C)=O)C(=O)c1cccnc1`: the AC50 is > 10 µM (inactive).

For the compound `COc1ccc(NC(=O)N(C)C[C@@H]2OCc3cnnn3CCCC(=O)N([C@H](C)CO)C[C@@H]2C)c(OC)c1`, the AC50 was > 10 µM (inactive). The same measure for `C[C@@H]1CN([C@@H](C)CO)C(=O)CCCn2cc(nn2)CO[C@H]1CN(C)Cc1ccccc1`: > 10 µM (inactive); for `C[C@H](CO)N1C[C@H](C)[C@H](CN(C)C(=O)Oc2ccc3ccccc3c2)OCc2cn(nn2)CCCC1=O`: > 10 µM (inactive); for `O=C(Nc1cccc(F)c1)N1C[C@@H]2[C@H](c3ccccc31)[C@H](CO)N2C(=O)Cc1ccccn1`: > 10 µM (inactive). For `O=C(CC(F)(F)F)N1C[C@@H]2[C@H](c3ccccc31)[C@H](CO)N2C(=O)C1CCCCC1`, the AC50 was > 10 µM (inactive). With `COCC(=O)N(C)C[C@H]1[C@@H](c2ccccc2)[C@H](CO)N1C(=O)Cc1ccncc1`, the AC50 was > 10 µM (inactive). For the compound `COc1ccc(NC(=O)N(C)C[C@@H]2OCc3cnnn3CCCC(=O)N([C@H](C)CO)C[C@H]2C)c(OC)c1`, the AC50 is > 10 µM (inactive). As for `COCC(=O)N(C[C@H]1N[C@H](CO)[C@@H]1c1ccc(-c2cncnc2)cc1)C(C)C`, the AC50 is > 10 µM (inactive). The same measure for `O=C(Nc1ccccc1F)N1C[C@@H]2[C@H](c3ccccc31)[C@H](CO)N2C(=O)Cc1cccnc1`: > 10 µM (inactive); for `O=C(C1CC1)N1C[C@@H]2[C@H](c3ccccc31)[C@H](CO)N2C(=O)c1ccccc1`: > 10 µM (inactive); for `C[C@H](CO)N1C[C@H](C)[C@@H](CN(C)S(=O)(=O)c2ccc(Oc3ccccc3)nc2)OCc2cnnn2CCCC1=O`: > 10 µM (inactive). `CCNC[C@@H]1[C@@H](c2ccccc2)[C@@H](CO)N1C(=O)Cc1ccccn1`: the AC50 was > 10 µM (inactive). As for `O=C(NC[C@@H]1[C@H](c2ccccc2)[C@@H](CO)N1Cc1cccnc1)c1ccccn1`, the AC50 is > 10 µM (inactive). Consider `COc1ccccc1CN1[C@@H](CO)[C@@H]2c3ccccc3N(C(=O)C3CCOCC3)C[C@@H]21`, for which the AC50 was > 10 µM (inactive).

As to `CCC(=O)N1[C@H](CO)[C@H](c2ccccc2)[C@H]1CN(CC)C(=O)c1cccc(F)c1`, the AC50 was > 10 µM (inactive). With `O=C(C1CCC1)N1C[C@@H]2[C@H](c3ccccc31)[C@H](CO)N2Cc1ccccc1`, the AC50 was > 10 µM (inactive). For the compound `COCC(=O)N1[C@H](CO)[C@H]2c3ccccc3N(C)C[C@H]21`, the AC50 is > 10 µM (inactive). For the compound `O=C(Nc1ccc(F)cc1)N1[C@@H](CO)[C@@H]2c3ccccc3NC[C@@H]21`, the AC50 is > 10 µM (inactive). In the case of `O=C(Cc1ccccc1)N1C[C@H]2[C@@H](c3ccccc31)[C@H](CO)N2S(=O)(=O)c1ccccc1`, the AC50 was > 10 µM (inactive). On to `C/C=C/c1ccc([C@H]2[C@@H](CO)N[C@@H]2CN(CC)C(=O)CN2CCOCC2)cc1`, for which the AC50 is > 10 µM (inactive).

`C[C@H](CO)N1C[C@H](C)[C@H](CN(C)C(=O)NC2CCCCC2)OCc2cn(nn2)CCCC1=O`: the AC50 was > 10 µM (inactive). Take `O=S(=O)(c1ccc(F)cc1)N1C[C@@H]2[C@H](c3ccccc31)[C@@H](CO)N2Cc1ccccc1Cl`: the AC50 was > 10 µM (inactive). On to `C[C@@H]1CN([C@@H](C)CO)C(=O)CCCn2nncc2CO[C@H]1CN(C)C(=O)Oc1cccc2ccccc12`, for which the AC50 is > 10 µM (inactive). Consider `C[C@@H]1CN([C@@H](C)CO)C(=O)CCCn2nncc2CO[C@H]1CN(C)C(=O)Nc1ccc2c(c1)OCCO2`, for which the AC50 was > 10 µM (inactive). For `CCC(=O)N1[C@H](CO)[C@@H](c2ccccc2)[C@H]1CN(C)C(=O)CN1CCOCC1`, the AC50 is > 10 µM (inactive). Take `COCC(=O)NC[C@@H]1[C@H](c2ccccc2)[C@@H](CO)N1C(=O)c1ccccc1`: the AC50 was > 10 µM (inactive). As to `C[C@@H]1CN([C@@H](C)CO)C(=O)CCCn2cc(nn2)CO[C@@H]1CN(C)C(=O)c1ccc(N2CCN(C)CC2)cc1`, the AC50 is > 10 µM (inactive). Consider `CN(Cc1ccccc1F)C[C@H]1[C@@H](c2ccccc2)[C@@H](CO)N1S(C)(=O)=O`, for which the AC50 was > 10 µM (inactive). The result for `CN(C)CC(=O)N1C[C@H]2[C@@H](c3ccccc31)[C@@H](CO)N2C(=O)c1ccccn1` reads > 10 µM (inactive). The result for `O=C(C1CC1)N1C[C@H]2[C@@H](c3ccccc31)[C@H](CO)N2C(=O)c1ccccc1` reads > 10 µM (inactive); that for `C[C@H]1CN([C@@H](C)CO)C(=O)CCCn2nncc2CO[C@H]1CN(C)C(=O)Nc1cccc(Oc2ccccn2)c1`, > 10 µM (inactive); that for `C[C@H]1CN([C@@H](C)CO)C(=O)CCCn2cc(nn2)CO[C@@H]1CN(C)C(=O)Nc1cccc2ccccc12`, > 10 µM (inactive). Regarding `CC(C)NC(=O)N1[C@H](CO)[C@@H]2c3ccccc3NC[C@@H]21`, the AC50 was > 10 µM (inactive).

Take `O=C(NC[C@@H]1N[C@@H](CO)[C@@H]1c1ccccc1)c1ccccc1F`: the AC50 is > 10 µM (inactive). `CCN(C[C@H]1[C@H](c2ccccc2)[C@@H](CO)N1C(C)=O)C(=O)NC1CCCC1`: the AC50 is > 10 µM (inactive). The result for `C[C@@H]1CN([C@@H](C)CO)C(=O)CCCn2cc(nn2)CO[C@@H]1CN(C)S(=O)(=O)c1cn(C)cn1` reads > 10 µM (inactive). Turning to `C[C@@H]1CN([C@@H](C)CO)C(=O)CCCn2nncc2CO[C@H]1CN(C)S(=O)(=O)c1ccc(Oc2ccccc2)nc1`, the AC50 is > 10 µM (inactive). Consider `CN(C[C@H]1[C@@H](c2ccccc2)[C@@H](CO)N1Cc1ccccn1)S(C)(=O)=O`, for which the AC50 is > 10 µM (inactive).

Consider `O=C(c1ccc2c(c1)OCO2)N1C[C@H]2[C@@H](c3ccccc31)[C@@H](CO)N2C(=O)CC1CC1`, for which the AC50 was > 10 µM (inactive). With `C[C@@H]1CN([C@@H](C)CO)C(=O)CCCn2nncc2CO[C@@H]1CN(C)CC1CCCCC1`, the AC50 was > 10 µM (inactive).

As for `O=C(c1ccncc1)N1C[C@H]2[C@@H](c3ccccc31)[C@@H](CO)N2Cc1ccccc1F`, the AC50 was > 10 µM (inactive). Regarding `C[C@H](CO)N1C[C@H](C)[C@@H](CN(C)C(=O)c2ccc3ccn(C)c3c2)OCc2cnnn2CCCC1=O`, the AC50 is > 10 µM (inactive).

The record behind these values is PubChem BioAssay AID977614 (Broad Institute, 2014).
